From patent publication US3976771A, “Glycylglycine amide preparations and method of use antiarrhythmic” (priority 1972, dated 1976)
“Also recorded” adds a separate entry of the source.

Columns and labels:
[1] = tested on: contractility of the heart; test: Qualitative observation of side effects in the animal tests; type: in vivo; conditions: preliminary indication
From the text: However, it was qualitatively observed that the side effects of the compounds of the present invention appeared to be less significant.

[2] = tested on: mice; test: Acute oral toxicity in mice; type: in vivo; conditions: deaths during 7 days
Method: For determination of acute toxicity groups of 10 mice were treated orally with varying doses of compound observing the incidence of death, during a 7 days period. LD50 and LD 0.1 were calculated by means of a logarithmic-probit graph paper.

[3] = tested on: aconitine-induced arrhythmias; test: Protection against aconitine-induced arrhythmias in the guinea-pig; type: in vivo; conditions: for Dose of aconitine necessary for development of ECG-changes indicating Asystolie / Dose of aconitine necessary for development of ECG-changes indicating Fibrillation / Dose of aconitine necessary for development of ECG-changes indicating Tachycardia: 15 min before aconitine infusion, mean ± standard error
Method: The procedure used by Vargaftig et al. (Eur. J. Pharmacol. 6, 49, 1969) was slightly modified; Guinea-pigs of both sexes (250-400 g) were anaesthetized with uretane (1 g/kg bodyweight, i.p.). A plastic tube was introduced into the trachea and a thin plastic catheter into the jugular vein. Respiration was supported by means of a Harward Rodent Respirator 680. Aconitine was infused i.v. at a rate of 3 μg/min by means of a Palmer slow injection apparatus. The ECG (lead II) was continuously monitored. The amount of aconitine (μg/kg bodyweight) injected to induce ventricular tachycardia, fibrillation and asystolie was calculated. Test compounds were given i.p. with different time intervals between injection of drug and start of aconitine infusion.

[4] = tested on: ventricular fibrillation upon exposure to chloroform vapor; test: Protection against chloroform-induced ventricular fibrillation in mice; type: in vivo
From the text: The method used in mice was essentially the same as described by Lawson (J. Pham. Exp. Therap. 160, 22 (1968). Male mice (NMRI, 17-25 g) were used. Unanesthetized, untreated mice show cardiac ventricular fibrillation upon exposure to chloroform vapor. The ventricular fibrillation is abolished if the animals are pretreated with appropriate doses of known antiarrhythmic agents before exposure to chloroform.
For determination of antiarrhythmic effect groups of 10 mice were pretreated by the oral route with varying sublethal doses of compound 10 to 300 min. respectively before being placed individually in a beaker containing chloroform. The mouse was removed from the beaker at the time of respiratory arrest and the thorax opened. Examination of ventricular fibrillation was made by means of ECG-recordings (lead II). The effect of the compound was expressed as the number of animals in per cent which were protected from fibrillation.

[5] = tested on: ventricular arrhythmias produced by coronary artery ligation; test: Ventricular arrhythmias produced by coronary artery ligation in unanesthetized dogs; type: in vivo; conditions: two dogs, constant i.v. infusion 0.5 mg/kg/min
Method: The effects of intravenous infusion of GEA968 was also studies on two unanesthesized dogs with ventricular arrhythmias produced by coronary artery ligation, essentially following the procedure of A. S. Harris, Circulation, Vol. I, page 1318 (1950). The two dogs with well-developed arrhythmias received a constant infusion of 0.5 mg/kg/min. of GEA968.

[6] = due to low levels of the drug in the blood; cited from earlier work
[7] = 100 mg/kg p.o., 10 min between pretreatment and chloroform vapor
[8] = 100 mg/kg p.o., 60 min between pretreatment and chloroform vapor

For `CCN(CC)CC(=O)NCC(=O)Nc1c(C)cccc1C` [GEA 968, N,N-diethylglycylglycine-2,6-xylidide], which “Effect on contractility of the heart (qualitative)” value [1] is on record?
Its value is “improving the contractility of the heart”.

What about the “LD 0.1 (the dose which kills 0.1 % of the animals)” value [2] of the same compound?
Its value is 250 mg/kg bodyweight.

What about the “Toxicity LD50 p.o.” value [2] of the same compound?
Its value is 535 mg/kg bodyweight.

And the “Dose of aconitine necessary for development of ECG-changes indicating Asystolie” value (shortened to “Dose … of ECG-changes indicating Asystolie”) ([3]; 25 mg/kg i.p.)?
The value was 210 ± 12 μg/kg bodyweight.

And the “Dose of aconitine necessary for development of ECG-changes indicating Fibrillation” value (“Dose … of ECG-changes indicating Fibrillation” below) ([3]; 25 mg/kg i.p.)?
The value was 155 ± 10 μg/kg bodyweight.

What about the “Dose of aconitine necessary for development of ECG-changes indicating Tachycardia” value (“Dose … of ECG-changes indicating Tachycardia” for short) ([3]; 25 mg/kg i.p.) of the same compound?
The value was 91 ± 6 μg/kg bodyweight.

And the “Dose … of ECG-changes indicating Asystolie” value ([3]; 50 mg/kg i.p.)?
Its value is 378 ± 33 μg/kg bodyweight.

What about the “Dose … of ECG-changes indicating Fibrillation” value ([3]; 50 mg/kg i.p.) of the same compound?
The value was 284 ± 25 μg/kg bodyweight.

And the “Dose … of ECG-changes indicating Tachycardia” value ([3]; 50 mg/kg i.p.)?
Its value is 161 ± 15 μg/kg bodyweight.

What about the “Dose … of ECG-changes indicating Asystolie” value ([3]; 100 mg/kg i.p.) of the same compound?
Its value is 632 ± 132 μg/kg bodyweight.

What about the “Dose … of ECG-changes indicating Fibrillation” value ([3]; 100 mg/kg i.p.) of the same compound?
The value was 356 ± 32 μg/kg bodyweight.

What about the “Dose … of ECG-changes indicating Tachycardia” value ([3]; 100 mg/kg i.p.) of the same compound?
Its value is 225 ± 35 μg/kg bodyweight.

What about the “Antiarrhythmic effect in the aconitine test (in words)” value ([3]; guinea-pig, i.p.) of the same compound?
The value was “markedly potent; also recorded: good antiarrhythmic effects”.

What about the “Percentage animals protected from fibrillation” value (“Percentage animals protected” for short) ([4]; 54 mg/kg p.o. (one tenth of LD50), 10 min) of the same compound?
The value was 45 per cent.

What about the “Percentage animals protected” value ([4]; 54 mg/kg p.o. (one tenth of LD50), 60 min) of the same compound?
Its value is 55 per cent.

What about the “Percentage animals protected” value ([4]; 54 mg/kg p.o. (one tenth of LD50), 300 min) of the same compound?
Its value is 15 per cent.

What about the “Percentage animals protected” value [4, 7] of the same compound?
The value was 70 per cent.

What about the “Percentage animals protected” value [4, 8] of the same compound?
The value was 65 per cent.

What about the “Percentage animals protected” value ([4]; 100 mg/kg p.o., 300 min between pretreatment and chloroform vapor) of the same compound?
Its value is 45 per cent.

What about the “Percentage animals protected” value ([4]; 250 mg/kg p.o., 10 min) of the same compound?
The value was 90 per cent.

And the “Percentage animals protected” value ([4]; 250 mg/kg p.o., 60 min)?
The value was 90 per cent.

What about the “Percentage animals protected” value ([4]; 250 mg/kg p.o., 300 min) of the same compound?
The value was 70 per cent.

What about the “Antiarrhythmic effect in the chloroform test (in words)” value ([4]; mice, p.o.) of the same compound?
Its value is “good antiarrhythmic effects”.

What about the “Duration of antiarrhythmic effectiveness (in words)” value ([4]; mouse, in vivo) of the same compound?
Its value is “especially significant”.

What about the “Duration of suppression of arrhythmias” value [5] of the same compound?
Its value is “unusually long duration”.

And the “Effect on ventricular arrhythmias” value [5]?
The value was “suppression of the arrhythmias”.

Which results are given for `CCN(CC)CC(=O)NCC(=O)NC(C)(C)c1ccccc1` [GEA 980, N^3,N^3 -diethyl-N^1 -(α,α-dimethylbenzyl) glycylglycine amide]?
Toxicity LD50 p.o. [2]: > 500 mg/kg bodyweight; Percentage animals protected from fibrillation [4, 7]: 11 per cent; Percentage animals protected from fibrillation [4, 8]: 10 per cent; Percentage animals protected from fibrillation ([4]; 300 mg/kg p.o., 10 min): 25 per cent; Percentage animals protected from fibrillation ([4]; 300 mg/kg p.o., 60 min): 10 per cent; Percentage animals protected from fibrillation ([4]; 500 mg/kg p.o., 10 min): 65 per cent; Percentage animals protected from fibrillation ([4]; 500 mg/kg p.o., 60 min): 0 per cent

Which “LD 0.1 (the dose which kills 0.1 % of the animals)” value [2] does the source give for `CCN(CC)CC(=O)N[C@@H](C)C(=O)NC(C)(C)c1ccccc1` [GEA 981, N^3,N^3 -diethyl-N^1 -(α,α-dimethylbenzyl)glycylalanineamide] here?
Its value is 610 mg/kg bodyweight.

What about the “Toxicity LD50 p.o.” value [2] of the same compound?
The value was 880 mg/kg bodyweight.

And the “Percentage animals protected” value ([4]; 88 mg/kg p.o. (one tenth of LD50), 10 min)?
Its value is 35 per cent.

What about the “Percentage animals protected” value ([4]; 88 mg/kg p.o. (one tenth of LD50), 60 min) of the same compound?
The value was 10 per cent.

What about the “Percentage animals protected” value ([4]; 610 mg/kg p.o. (LD 0.1), 10 min) of the same compound?
Its value is 90 per cent.

What about the “Percentage animals protected” value ([4]; 610 mg/kg p.o. (LD 0.1), 60 min) of the same compound?
Its value is 45 per cent.

Which results are given for `CCN(CC)[C@@H](C)C(=O)N[C@@H](C)C(=O)NC(C)(C)c1ccccc1` [GEA 982, N^3,N^3 -diethyl-N^1 -(α,α-dimethylbenzyl)alanylalanineamide]?
LD 0.1 (the dose which kills 0.1 % of the animals) [2]: 210 mg/kg bodyweight; Toxicity LD50 p.o. [2]: 660 mg/kg bodyweight; Percentage animals protected from fibrillation ([4]; 66 mg/kg p.o. (one tenth of LD50), 10 min): 0 per cent; Percentage animals protected from fibrillation ([4]; 66 mg/kg p.o. (one tenth of LD50), 60 min): 0 per cent; Percentage animals protected from fibrillation ([4]; 210 mg/kg p.o. (LD 0.1), 10 min): 40 per cent; Percentage animals protected from fibrillation ([4]; 210 mg/kg p.o. (LD 0.1), 60 min): 15 per cent

What does the source list for `CCN(CC)CC(=O)NCC(=O)Nc1ccccc1` [GEA 984, N,N-diethylglycylglycine anilide]?
Toxicity LD50 p.o. [2]: > 1000 mg/kg bodyweight; Dose of aconitine necessary for development of ECG-changes indicating Asystolie ([3]; 100 mg/kg i.p.): 284 ± 29 μg/kg bodyweight; Dose of aconitine necessary for development of ECG-changes indicating Fibrillation ([3]; 100 mg/kg i.p.): 211 ± 18 μg/kg bodyweight; Dose of aconitine necessary for development of ECG-changes indicating Tachycardia ([3]; 100 mg/kg i.p.): 95 ± 9 μg/kg bodyweight; Percentage animals protected from fibrillation ([4]; 250 mg/kg p.o., 10 min): 0 per cent; Percentage animals protected from fibrillation ([4]; 250 mg/kg p.o., 60 min): 0 per cent; Percentage animals protected from fibrillation ([4]; 500 mg/kg p.o., 10 min): 70 per cent; Percentage animals protected from fibrillation ([4]; 500 mg/kg p.o., 60 min): 10 per cent; Percentage animals protected from fibrillation ([4]; 1000 mg/kg p.o., 10 min): 75 per cent; Percentage animals protected from fibrillation ([4]; 1000 mg/kg p.o., 60 min): 0 per cent

With `CCN(CC)CC(=O)Nc1c(C)cccc1C` [Lidocaine, 2-diethylamino-2', 6'-acetoxylidide, reference compound] as the compound, how does the “LD 0.1 (the dose which kills 0.1 % of the animals)” value [2] read?
The value was 150 mg/kg bodyweight.

What about the “Dose … of ECG-changes indicating Asystolie” value ([3]; 25 mg/kg i.p.) of the same compound?
The value was 237 ± 35 μg/kg bodyweight.

And the “Dose … of ECG-changes indicating Fibrillation” value ([3]; 25 mg/kg i.p.)?
Its value is 176 ± 12 μg/kg bodyweight.

What about the “Dose … of ECG-changes indicating Tachycardia” value ([3]; 25 mg/kg i.p.) of the same compound?
The value was 66 ± 7 μg/kg bodyweight.

What about the Oral antiarrhythmic effectiveness [6] of the same compound?
Its Oral antiarrhythmic effectiveness is “not orally effective”.
